What was measured:
Assay type in all cases: binding
[1] = target: T1, panel of 442 kinases (Homo sapiens, UniProt Q13043); conditions: Compound Concentration 10 µM
T1 construct: purchased KINOMEscan
T1 sequence (Q13043 1-487): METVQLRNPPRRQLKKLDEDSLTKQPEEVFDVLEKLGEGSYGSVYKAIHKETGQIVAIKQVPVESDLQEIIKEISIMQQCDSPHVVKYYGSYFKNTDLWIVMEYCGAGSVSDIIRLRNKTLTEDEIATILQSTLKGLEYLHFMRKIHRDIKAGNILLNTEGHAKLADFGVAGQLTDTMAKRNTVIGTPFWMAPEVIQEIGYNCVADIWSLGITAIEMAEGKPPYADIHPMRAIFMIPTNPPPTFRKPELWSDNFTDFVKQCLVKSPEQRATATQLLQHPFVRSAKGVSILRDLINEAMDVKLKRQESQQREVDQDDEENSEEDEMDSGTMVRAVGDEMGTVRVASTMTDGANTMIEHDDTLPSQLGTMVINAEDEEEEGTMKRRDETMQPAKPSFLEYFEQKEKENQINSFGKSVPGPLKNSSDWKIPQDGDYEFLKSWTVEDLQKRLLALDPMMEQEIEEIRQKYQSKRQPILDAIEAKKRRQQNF
Excerpt: (§1) We assessed the selectivity of members of this scaffold using the KINOMEscan methodology across a near comprehensive panel of 442 kinases [[18,27]].

[2] = target: T2, panel of 442 kinases (Homo sapiens, UniProt P23458); conditions: Compound Concentration 10 µM
T2 construct: purchased KINOMEscan
T2 sequence (P23458 whole entry): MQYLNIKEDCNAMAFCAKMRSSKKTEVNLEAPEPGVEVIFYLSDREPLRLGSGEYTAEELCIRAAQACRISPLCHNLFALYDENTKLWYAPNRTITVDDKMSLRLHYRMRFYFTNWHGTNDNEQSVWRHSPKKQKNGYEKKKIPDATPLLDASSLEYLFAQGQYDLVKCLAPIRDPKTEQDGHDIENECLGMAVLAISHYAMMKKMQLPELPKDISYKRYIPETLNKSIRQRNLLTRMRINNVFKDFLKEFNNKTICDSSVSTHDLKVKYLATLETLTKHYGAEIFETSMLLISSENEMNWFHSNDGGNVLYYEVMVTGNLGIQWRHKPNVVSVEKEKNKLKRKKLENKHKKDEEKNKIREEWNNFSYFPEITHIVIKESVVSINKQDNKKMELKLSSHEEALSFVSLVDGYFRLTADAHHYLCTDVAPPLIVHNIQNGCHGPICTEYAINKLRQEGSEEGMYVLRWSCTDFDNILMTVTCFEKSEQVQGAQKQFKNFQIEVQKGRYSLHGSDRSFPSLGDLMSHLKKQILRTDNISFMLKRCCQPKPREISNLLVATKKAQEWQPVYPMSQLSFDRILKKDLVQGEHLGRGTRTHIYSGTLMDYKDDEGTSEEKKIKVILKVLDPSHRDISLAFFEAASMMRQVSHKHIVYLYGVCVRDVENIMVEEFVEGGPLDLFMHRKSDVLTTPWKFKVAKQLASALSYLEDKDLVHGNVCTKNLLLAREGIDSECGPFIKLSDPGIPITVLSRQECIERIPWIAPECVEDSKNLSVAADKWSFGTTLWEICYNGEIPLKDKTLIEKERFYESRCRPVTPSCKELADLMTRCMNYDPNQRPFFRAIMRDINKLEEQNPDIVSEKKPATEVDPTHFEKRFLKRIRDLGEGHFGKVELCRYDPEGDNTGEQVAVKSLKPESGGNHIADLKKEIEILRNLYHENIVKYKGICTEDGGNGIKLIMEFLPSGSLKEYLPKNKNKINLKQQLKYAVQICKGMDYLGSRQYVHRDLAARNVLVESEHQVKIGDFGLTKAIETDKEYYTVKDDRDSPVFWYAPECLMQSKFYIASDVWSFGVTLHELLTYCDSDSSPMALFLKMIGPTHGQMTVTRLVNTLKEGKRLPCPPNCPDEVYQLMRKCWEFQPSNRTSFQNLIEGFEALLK
Excerpt: as §1

[3] = target: T3, panel of 442 kinases (Homo sapiens, UniProt Q96SB4); conditions: kinase SRPK1; compound concentration 10 µM
T3 construct: purchased KINOMEscan
T3 sequence (Q96SB4 whole entry): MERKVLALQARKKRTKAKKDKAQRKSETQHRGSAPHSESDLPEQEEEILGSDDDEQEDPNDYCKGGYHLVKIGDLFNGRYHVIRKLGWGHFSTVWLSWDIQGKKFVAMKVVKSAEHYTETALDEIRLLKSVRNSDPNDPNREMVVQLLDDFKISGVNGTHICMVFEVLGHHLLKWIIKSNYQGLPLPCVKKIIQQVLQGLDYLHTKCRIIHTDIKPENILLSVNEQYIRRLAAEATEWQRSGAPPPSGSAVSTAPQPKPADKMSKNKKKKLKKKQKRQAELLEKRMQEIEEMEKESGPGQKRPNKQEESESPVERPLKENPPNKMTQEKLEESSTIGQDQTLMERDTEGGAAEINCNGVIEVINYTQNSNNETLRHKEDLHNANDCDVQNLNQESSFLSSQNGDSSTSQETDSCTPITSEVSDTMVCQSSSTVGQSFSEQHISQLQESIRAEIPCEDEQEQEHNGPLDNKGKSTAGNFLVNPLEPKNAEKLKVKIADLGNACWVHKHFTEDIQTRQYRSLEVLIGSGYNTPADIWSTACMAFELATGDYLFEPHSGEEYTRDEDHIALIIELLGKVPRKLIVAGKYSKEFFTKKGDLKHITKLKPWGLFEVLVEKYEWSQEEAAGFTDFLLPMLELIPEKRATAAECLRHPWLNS
Excerpt: as §1

Compound | KINOMEscan: MST1 [1] | KINOMEscan: JAK1(JH2domain-pseudokinase) [2] | % Ctrl, SRPK1 [3] [% Ctrl] | KINOMEscan: JAK1(JH1domain-catalytic) [2]
COc1cc(C(=O)N2CCC(N3CCN(C)CC3)CC2)ccc1Nc1ncc2c(n1)N1CCc3cccc(c31)C(=O)N2C [Compound 24] | 95 | 62 | 74 | –
CCOc1cc(C(=O)N2CCC(N3CCN(C)CC3)CC2)ccc1Nc1ncc2c(n1)N(C1CCCC1)c1ccccc1C(=O)N2C [Compound 26] | 100 | 98 | 100 | 100
COc1cc(C(=O)N2CCC(N3CCN(C)CC3)CC2)ccc1Nc1ncc2c(n1)N(C1CCCC1)c1ccccc1C(=O)N2C [Compound 25, 11-cyclopentyl-2-((2-methoxy-4-(4-(4-methylpiperazin-1-yl)piperidine-1-carbonyl)phenyl)amino)-5-methyl-5H-benzo[e]pyrimido[5,4-b][1,4]diazepin-6(11H)-one] | 100 | 100 | 90 | 100
COc1cc(C(=O)N2CCC(N3CCN(C)CC3)CC2)ccc1Nc1ncc2c(n1)N(C)c1ccccc1C(=O)N2C [15 (LRRK2-IN-1)] | 100 | 92 | 94 | 100

— article PMC3914206
